Assay results published in patent publication US4579859A, “Vasodilating trinitratoalkyl esters of 2-cyano-1,4-dihydropyridines” (Fujisawa Pharmaceutical Co., Ltd., priority 1983, dated 1986).
≈ marks a conversion by molar mass, not a printed value. Read-outs that look alike come from different tables or passages of the source.

Test system: isolated coronary artery
Experiment: Effect on isolated coronary artery (relaxation of KF-contracted spiral strips; papaverine 10^-4 M = 100%)
Parameters: species or system dogs
Settings: Canis lupus familiaris, read-out: ED50 values
Description: The large coronary arteries, 2.0 mm in outside diameter were removed from pentobarbital-anesthetized dogs. Spiral strips approximately 15 mm in length were cut from the large arteries, and suspended in an organ bath containing calcium-free-Tyrode's solution with EGTA 0.2 mM at 37° C., aerated with a gas mixture of 95% oxygen and 5% carbon dioxide. The tonus of the strips was recorded on a polygraph with a force-displacement transducer. After the initial resting tension was adjusted to 1.0 g for the large artery, potassium fluoride 10 mM was added to the organ bath to increase the tonus of the large arterial strips to 1.4-1.6 g.
The cumulative concentrations of the test compound were then added, and finally paraverine 10^-4 M was given to determine maximum relaxation. ED50 values were calculated by interpolation from the mean cumulative dose-activity curves (effect of papaverine 10^-4 M=100%).

Work on CCOC(=O)C1=C(C)NC(C)=C(C(=O)OCC(CO[N+](=O)[O-])(CO[N+](=O)[O-])CO[N+](=O)[O-])C1c1cccc(Cl)c1Cl (stereo not drawn) [Compound A, 3-Nitrooxy-2,2-bis(nitrooxymethyl)propyl ester of 4-(2,3-dichlorophenyl)-5-ethoxycarbonyl-2,6-dimethyl-1,4-dihydropyridine-3-carboxylic acid] yielded an EC50 of 0.97 µg/mL (≈ 1.56 µM).

With COC(=O)C1=C(C)NC(C)=C(C(=O)OC)C1c1ccccc1[N+](=O)[O-] [Nifedipine, Dimethyl esters of 2,6-dimethyl-4-(2-nitrophenyl)-3,5-dicarboxylic acid, reference compound] the EC50 (isolated dog large coronary artery strips, calcium-free Tyrode's solution with EGTA 0.2 mM, 37° C., tonus by potassium fluoride 10 mM, cumulative concentrations, papaverine 10^-4 M = 100%) was > 1 µg/mL.

For COC(=O)C1=C(C#N)NC(C)=C(C(=O)OCC(CO[N+](=O)[O-])(CO[N+](=O)[O-])CO[N+](=O)[O-])C1c1cccc([N+](=O)[O-])c1 (stereo not drawn) [Compound B, 3-Nitrooxy-2,2-bis(nitrooxymethyl)propyl ester of 6-cyano-5-methoxycarbonyl-2-methyl-4-(3-nitrophenyl)-1,4-dihydropyridine-3-carboxylic acid], the EC50 was 0.17 µg/mL (≈ 0.285 µM).
